Consider 27 compounds from ChEMBL document CHEMBL1127279, “1,3-Oxazino[4,5-b]indole-2,4-(1H,9H)-diones and 5,6-dimethylpyrrolo-[2,3-d]-1,3-oxazin-2,4-(1H,7H)-diones as serine protease inhibitors” (Bioorg Med Chem Lett, 1994).

For test [1], the target named is T1, Neutrophil elastase (Homo sapiens, UniProt P08246).
T1 sequence (P08246 whole entry): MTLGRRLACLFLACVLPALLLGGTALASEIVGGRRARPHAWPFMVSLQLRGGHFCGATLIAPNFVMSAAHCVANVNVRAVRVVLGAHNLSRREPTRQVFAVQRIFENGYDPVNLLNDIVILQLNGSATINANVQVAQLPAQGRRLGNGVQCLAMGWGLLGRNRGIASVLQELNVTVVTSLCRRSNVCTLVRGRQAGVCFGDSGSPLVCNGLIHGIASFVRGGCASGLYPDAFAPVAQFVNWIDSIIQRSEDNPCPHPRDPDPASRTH
Description: In vitro inhibition of human leukocyte elastase.

Test [2] deals with Pancreatic elastase (Sus scrofa, UniProt P08419+P00772). Description: Inhibitory activity against porcine pancreatic elastase using Suc-Ala-Ala-Ala-pNA (416 uM) as substrate. The class given is protein assay.
The target in test [3] is T2, Chymotrypsinogen A (Bos taurus, UniProt P00766). In words: Inhibitory activity against chymotrypsin using Suc-Ala-Ala-Pro-Phe-pNA (416 uM) as substrate;No Inhibition. The arrangement: species or system Sus scrofa.
Test [4] deals with T2, Chymotrypsinogen A. Description: Inhibitory activity against chymotrypsin using Suc-Ala-Ala-Pro-Phe-pNA (416 uM) as substrate; No Inhibition. On the set-up: species or system Sus scrofa.
Test [5] concerns the target T1, Neutrophil elastase. Description: Inhibitory activity against human leukocyte elastase using MeO-Suc-Ala-Ala-Pro-Val-pNA (416 uM) as substrate;No Inhibition.
Test [6] concerns the target T1, Neutrophil elastase. In words: Inhibitory activity against human leukocyte elastase using MeO-Suc-Ala-Ala-Pro-Val-pNA (416 uM) as substrate.
Test [7] has as its target T2, Chymotrypsinogen A. In words: Inhibitory activity against chymotrypsin using Suc-Ala-Ala-Pro-Phe-pNA (416 uM) as substrate. On the set-up: species or system Sus scrofa.

By IC50 is commonly meant the concentration that inhibits the measured activity by half.

Some results are limits rather than exact numbers.

For the compound `CCCn1c2ccc(OC)cc2c2c(=O)oc(=O)[nH]c21`, the concentration for half-maximal inhibition (IC50) in test [1] was > 1000 µM.

As to `CC(=O)Oc1ccc2c(c1)c1c(=O)oc(=O)[nH]c1n2CCCc1ccccc1`, the concentration for half-maximal inhibition (IC50) in test [1] was 305 µM; in test [2] it was > 1000 µM.

Take `CC(=O)Oc1ccc2c(c1)c1c(=O)oc(=O)[nH]c1n2Cc1ccccc1`: the IC50 in test [1] is 75 µM.

`CC(=O)Oc1ccc2c(c1)c1c(=O)oc(=O)[nH]c1n2C1CCCCC1` came in with an IC50 in test [1] of 454 µM.

In the case of `CCCCn1c2ccc(OC(C)=O)cc2c2c(=O)oc(=O)[nH]c21`, the IC50 is 810 µM in test [1] and > 1000 µM in test [2].

In the case of `COC(Cn1c2ccc(OC(C)=O)cc2c2c(=O)oc(=O)[nH]c21)OC`, the IC50 in test [1] is 742 µM.

As to `COCCn1c2ccc(OC(C)=O)cc2c2c(=O)oc(=O)[nH]c21`, the IC50 entry is “Not Active” in test [3] and > 1000 µM in test [1].

For `COC(Cn1c(C)c(C)c2c(=O)oc(=O)[nH]c21)OC`, the 50% inhibitory concentration (IC50) entry in test [4] and in test [5] was “Not Active” throughout.

As to `Cc1c(C)n(Cc2ccccn2)c2[nH]c(=O)oc(=O)c12`, the half-maximal inhibitory concentration (IC50) result in test [5] is listed as “Not Active”.

With `COc1ccc2c(c1)c1c(=O)oc(=O)[nH]c1n2CCc1ccccc1`, the IC50 in test [6] was > 1000 µM.

With `CCCCn1c(C)c(C)c2c(=O)oc(=O)[nH]c21`, in test [1], the IC50 was > 1000 µM.

For the compound `CCCn1c(C)c(C)c2c(=O)oc(=O)[nH]c21`, the IC50 entry in test [4] and in test [5] was “Not Active” throughout.

As to `COc1ccc2c(c1)c1c(=O)oc(=O)[nH]c1n2Cc1ccccc1`, the half-maximal inhibitory concentration (IC50) in test [1] was > 1000 µM.

Turning to `CC(=O)Oc1ccc2c(c1)c1c(=O)oc(=O)[nH]c1n2CCc1ccccc1`, the concentration for half-maximal inhibition (IC50) in test [1] was determined as 92 µM; in test [2], 833 µM.

As for `Cc1c(C)n(CCCc2ccccc2)c2[nH]c(=O)oc(=O)c12`, the half-maximal inhibitory concentration (IC50) in test [5] (read-out: IC50) is 895 µM.

In the case of `COc1ccc2c(c1)c1c(=O)oc(=O)[nH]c1n2CC(OC)OC`, in test [1], the IC50 was > 1000 µM.

For `COCCn1c2ccc(OC)cc2c2c(=O)oc(=O)[nH]c21`, the IC50 entry in test [4] is “Not Active”; in test [1], > 1000 µM.

`Cc1c(C)n(Cc2ccccc2)c2[nH]c(=O)oc(=O)c12`: the half-maximal inhibitory concentration (IC50) entry in test [5] was “Not Active”.

Consider `CC(=O)Oc1ccc2c(c1)c1c(=O)oc(=O)[nH]c1n2Cc1ccccn1`, for which the IC50 in test [1] came to 292 µM.

With `Cc1c(C)n(CCc2ccccc2)c2[nH]c(=O)oc(=O)c12`, the IC50 result in test [5] is reported as “Not Active”.

On to `COc1ccc2c(c1)c1c(=O)oc(=O)[nH]c1n2Cc1ccccn1`, for which the values for the concentration for half-maximal inhibition (IC50) in test [7] and in test [1] were 512 µM and > 1000 µM, respectively.

`COc1ccc2c(c1)c1c(=O)oc(=O)[nH]c1n2CCCc1ccccc1`: the concentration for half-maximal inhibition (IC50) in test [6] amounted to 989 µM.

On to `Cc1c(C)n(C2CCCCC2)c2[nH]c(=O)oc(=O)c12`, for which, in test [1], the IC50 was > 1000 µM.

Regarding `CCCn1c2ccc(OC(C)=O)cc2c2c(=O)oc(=O)[nH]c21`, in test [1], the IC50 is 665 µM.

Take `COc1ccc2c(c1)c1c(=O)oc(=O)[nH]c1n2C1CCCCC1`: the IC50 in test [1] is > 1000 µM.

Turning to `CCCCn1c2ccc(OC)cc2c2c(=O)oc(=O)[nH]c21`, the IC50 in test [1] is > 1000 µM.

For the compound `COCCn1c(C)c(C)c2c(=O)oc(=O)[nH]c21`, the IC50 entry in test [4] and in test [5] was “Not Active” in each case.
